{
  "source": "patent US20240239895A1",
  "about": "“COMBINATION THERAPY WITH A RAF INHIBITOR AND A PD-1 AXIS INHIBITOR” (Genentech, Inc., priority 2021, published 2024)",
  "key": {"[1]": {"test_system": "phosphorylation of MEK and ERK in the MAPK pathway", "test": "MEK and ERK phosphorylation in cancer cell lines", "type": "cell-based", "conditions": "BRAF- or RAS-mutant melanoma, NSCLC, and CRC cell lines"}, "[2]": {"test_system": "BRAF- or RAS-mutant melanoma, NSCLC, CRC, and thyroid cancer cell lines", "test": "growth of cancer cell lines in vitro", "type": "cell-based"}, "[3]": {"test_system": "BRAF- and NRAS-mutant melanoma, KRAS mutant NSCLC, BRAF mutant CRC xenografts", "test": "mouse xenograft models, monotherapy", "type": "in vivo", "excerpt": "The in vitro antitumor effects of belvarafenib have translated into efficacy in various mouse xenograft models."}, "[4]": {"test": "Phase I relative bioavailability and food effect study in healthy subjects", "type": "in vivo", "conditions": "200 mg single dose", "description": "In another Phase I, single dose, randomized, crossover relative bioavailability and food effect study in healthy subjects, the influence of a formulation change from the Phase I to Phase II tablet on belvarafenib exposure was evaluated. A total of 18 healthy subjects were enrolled in the study and received the following randomized treatments: one 150-mg and one 50-mg Phase I tablet in a fed state, two 100-mg Phase II tablets in a fed state, or two 100-mg Phase II tablets in a fasted state, with a 18-day washout between treatments."}, "[5]": {"test_system": "K1735 melanoma cells carrying the NRASG13D mutation", "test": "K1735 syngeneic mouse model, tumor growth", "type": "in vivo", "excerpt": "Example 1 evaluated the efficacy of belvarafenib monotherapy, atezolizumab monotherapy, a combination therapy of belvarafenib and atezolizumab in a mutant K1735 subcutaneous mouse model.\nThe mouse strain was C3H/HeNCrlOri which is widely used for the K1735 syngeneic model. The mice were supplied by Orient Bio Inc., Korea.\nThe cell line was K1735 and was supplied by the American Type Culture Collection (ATCC). The K1735 cells are melanoma cells carrying the NRASG13D mutation. The cell culture in vitro media was Roswell Park Memorial Institute (RPMI) 10% fetal bovine serum (FBS) and incubation was at 5% C02 and 37° C. For the K1735 syngeneic model, cancer cells (1.5×10^8 cells/10 mL) were mixed with Hank's balanced salt solution (HBSS) and injected subcutaneously at 0.1 mL/head. Seven animals per group were treated with the vehicle (control), belvarafenib monotherapy at 7.5 mg/kg, belvarafenib monotherapy at 15 mg/kg, atezolizumab monotherapy at 10 mg/kg, belvarafenib (7.5 mg/kg) and atezolizumab (10 mg/kg) combination therapy, and belvarafenib (15 mg/kg) and atezolizumab (10 mg/kg) combination therapy. The experiment was done using 1st generation tumor tissue.\nBelvarafenib dihydrochloride, 99.6% purity, that was stored at room temperature was used. Dosing was based on active ingredient free base and was corrected for assay and water content. The dosing vehicle was DMSO (5%), cremophore EL (5%), and deionized water (90%). Belvarafenib for dosing was dissolved in the vehicle. Belvarafenib oral doses of 7.5 mg/kg and 15 mg/kg were evaluated as monotherapies and in combination with atezolizumab. Belvarafenib was dose daily for 21 days.\nAtezolizumab (TECENTRIQ©) that was stored at 2-8° C. was used. The dosing vehicle was saline and the dosing concentration was 5 mL/kg. An atezolizumab intravenous dose of 10 mg/kg was evaluated as a monotherapy and in combination with 7.5 mg/kg and 15 mg/kg belvarafenib. Atezolizumab was dosed three times a week for 3 weeks.\nTumor size. Tumor size was assessed by digital caliper (MITUTOYO CD-15CPX, MonotaRO Singapore, Japan) twice a week during the dosing period and calculated using the formula for an ellipsoid sphere (V=L×S2/2=mm3, where L=long diameter, and S=short diameter). Tumor size was recorded on the day of the body weight measurement and data was recorded on a tumor volume record sheet.\nRelative tumor volume (RTV). RTV(%)=tumor volume/initial tumor volume×100.\nTumor Growth (TG). TG (%)=RTVdayx/RTVday0×100.\nRelative tumor growth (RTG). The ratio of mean tumor volume on last measurement day to the mean tumor volume on Day 0.\nInhibition rate (IR). Inhibition of tumor growth was calculated relative to vehicle-treated controls. IR (%)=(1−mean relative tumor weight in treated group/mean relative tumor weight in control group)×100.\nMaximum inhibition rate (MIR). MIR was the highest recorded IR (%) among the measured inhibition rate (%).\nStatistical analysis of tumor size was performed with GraphPad Prism version 6 (GraphPad software, Inc., USA). Values were expressed as S.E.M. The significance of differences among multiple groups was assessed using a 2-way ANOVA. Post hoc pairwise comparison between groups was tested for significance using Dennett's method."}, "[6]": {"test": "K1735 syngeneic mouse model, body weight and clinical signs", "type": "in vivo", "description": "Body weight. Body weight measurement was performed twice a week during the dosing period.\nRelative body weight. Relative body weight (%)=body weight (g)/initial body weight (g)×100.\nMaximum weight loss (MWL). MWL was the highest recorded weight loss (%) among the measured weight loss (%)."}, "[7]": {"test_system": "tumor infiltrated CD3+CD8+ T cells", "test": "flow cytometry of tumor infiltrated CD3+CD8+ T cells, K1735 model", "type": "in vivo, mouse", "conditions": "belvarafenib 15 mg/kg oral QDx21; tumor tissue at end of experiment", "description": "Flow cytometry was used for tumor infiltrated CD3+CD8+ T cells analysis using BD FACSCanto™ IL (BD Biosciences) and FlowJo™ v 10.6.2 software (BD Biosciences). At the end of the experiment, tumor tissue, excluding mono and combination therapy groups using belvarafenib 7.5 mg/kg, were collected for evaluation of pharmacodynamics. Tumors were surgically dissected, washed twice with phosphate-buffered saline (PBS), and then chopped into 1 mm3 pieces. The chopped tumor pieces were digested in 7 mL of dissociation medium (RPMI medium with 10% FBS, collagenase type II at 2 mg/mL, collagenase type IV at 2 mg/mL, and DNase I at 1 mg/mL) for 30 minutes at 37° C., and filtered through a 70 μm cell strainer (BD Pharm, USA). The filtered cells were then washed twice with PBS. Remaining red blood cells were lysed using ammonium-chloride-potassium (ACK) solution. The cells, which had dissociated into single cells, were stained with Fe block (anti CD16/32, Ref. 14-0161-82, Invitrogen, USA) at 4° C. for 15 minutes to prevent nonspecific antibody binding. The cells were then stained with appropriate antibodies at 4° C. for 30 minutes. To assess the presence of CD3+CD8+ T cell population, cells were stained with PE Cy7-conjugated anti-CD3e (1:100 dilution) (clone: 145-2C11, Invitrogen, USA) and FITC-conjugated anti-CD8a (1:100 dilution) (clone: 53-6.7, Invitrogen, USA)."}, "[8]": {"conditions": "belvarafenib 7.5 mg/kg oral QDx21"}, "[9]": {"conditions": "belvarafenib 15 mg/kg oral QDx21"}},
  "data": [
    {"smiles": "Cc1ccc2c(Nc3cccc(Cl)c3F)nccc2c1NC(=O)c1csc2c(N)ncnc12", "note": "[Belvarafenib, 4-amino-N-(1-((3-chloro-2-fluorophenyl)amino)-6-methylisoquinolin-5-yl)thieno[3,2-d]pyrimidine-7-carboxamide]", "values": [
      {"measurement": "inhibition of phosphorylation of MEK and ERK", "setting": "[1]", "result": "inhibits phosphorylation of MEK and ERK"},
      {"measurement": "inhibition of cell line growth", "setting": "[2]", "result": "inhibit the growth"},
      {"measurement": "inhibition of tumor growth", "setting": "[3]", "result": "dose-dependent inhibition of tumor growth"},
      {"measurement": "serious adverse events, adverse events of special interest, deaths", "setting": "[4]", "result": "No serious adverse events, adverse events of special interest, or deaths were reported"},
      {"measurement": "MIR / Max Inhib. (maximum inhibition rate)", "setting": "[5]; [8]", "result": 48.2, "unit": "%"},
      {"measurement": "MTV21 (mean tumor volume on day 21 of treatment)", "setting": "[5]; [8]", "result": 2014.8, "unit": "mm^3"},
      {"measurement": "RTG (relative tumor growth)", "setting": "[5]; [8]", "result": 12.2},
      {"measurement": "MIR / Max Inhib. (maximum inhibition rate)", "setting": "[5]; [9]", "result": 54.7, "unit": "%"},
      {"measurement": "MTV21 (mean tumor volume on day 21 of treatment)", "setting": "[5]; [9]", "result": 1816.8, "unit": "mm^3"},
      {"measurement": "RTG (relative tumor growth)", "setting": "[5]; [9]", "result": 11.0},
      {"measurement": "IR (Day 21) (inhibition rate, tumor growth inhibition)", "setting": "[5]; [8]", "result": 48.2, "unit": "%"},
      {"measurement": "IR (Day 21) (inhibition rate, tumor growth inhibition)", "setting": "[5]; [9]", "result": 54.7, "unit": "%"},
      {"measurement": "MWL / Max Wt. (maximum weight loss)", "setting": "[6]; [8]", "result": 2.8, "unit": "%"},
      {"measurement": "MWL / Max Wt. (maximum weight loss)", "setting": "[6]; [9]", "result": 2.2, "unit": "%"},
      {"measurement": "CD3^+CD8^+ T cells (%)", "setting": "[7]", "result": 1.27, "unit": "%"}
    ]}
  ]
}
